In patent US10118925B2, “Imidazo[4,5-c] ring compounds containing substituted guanidine groups” (3M INNOVATIVE PROPERTIES COMPANY, priority 2015, dated 2018):
Where a name gives a salt, the structure may show the parent alone.

Assays:
[1] = tested on: Human peripheral blood mononuclear cells (PBMC); assay: Cytokine induction in human cells (PBMC): IFN-gamma by multiplex bead assay; format: cell-based; details: 21-24 hrs, lowest concentration inducing cytokine at least 2× negative control, tested 0.0001-10 micromolar
Experimental: (§1) Whole blood was obtained from healthy human donors and collected by venipuncture into vacutainer tubes or syringes containing EDTA. Human peripheral blood mononuclear cells (PBMC) were purified from the whole blood by density gradient centrifugation. Histopaque 1077 (15 mL, Sigma, St. Louis, Mo.) was transferred to 6×50 mL sterile polypropylene conical tubes. The Histopaque was overlayed with 15-25 mL of blood diluted 1:2 in Hank's Balanced Salts Solution (HBSS) (Gibco, Life Technology, Grand Island N.Y.). The tubes were then centrifuged at 1370 rpm for 30 minutes at 20° C., with no brake (400×g, GH 3.8 A Rotor).
(§2) The interface (buffy coat) containing the PBMC was collected and placed in a new sterile 50 mL conical polypropylene centrifuge tube. The PBMC were mixed with an equal volume of HBSS (about 20 mL from the interface and about 20 mL of HBSS), and then centrifuged at 1090 rpm, 10 min, 20° C., with brake (270×g, GH 3.8 A Rotor). After completing centrifugation, the cells were resuspended in 2-3 mL ACK Red blood cell lysis buffer (ammonium chloride potassium solution, Gibco, Life Technology) and incubated for 2-5 minutes at 20° C. […]
(§3) The number of viable cells were determined by counting with a Miltenyi FACS instrument (Miltenyi Biotec Inc., San Diego, Calif.) or by using a hemacytometer. […] Ten microliters of the diluted cells were then applied to the hemacytometer, and the number of viable PBMC were determined by microscopy. […]
(§4) IFN-alpha cytokine levels (pg/mL) were measured by ELISA (human IFN-α, pan specific, Mabtech, Cinncinnati, Ohio), IFN-gamma, TNF-alpha, and IP-10 cytokine levels (pg/mL) were measured by multiplex bead assay (magnetic beads, R & D Systems Minneapolis, Minn.) according to the manufacturer's instructions.
(§5) Specifically, the minimum effective concentration of each compound (micromolar) was determined as the lowest concentration of the compound that induced a measured cytokine response at a level ([…]) that was at least 2× greater than that observed with the negative control wells.

[2] = tested on: Human peripheral blood mononuclear cells (PBMC); assay: Cytokine induction in human cells (PBMC): IFN-alpha by ELISA; format: cell-based; details: 21-24 hrs, lowest concentration inducing cytokine at least 2× negative control, tested 0.0001-10 micromolar
Experimental: as §1, §2, §3, §4, §5

[3] = tested on: Human peripheral blood mononuclear cells (PBMC); assay: Cytokine induction in human cells (PBMC): TNF-alpha by multiplex bead assay; format: cell-based; details: 21-24 hrs, lowest concentration inducing cytokine at least 2× negative control, tested 0.0001-10 micromolar
Experimental: as §1, §2, §3, §4, §5

[4] = tested on: Human peripheral blood mononuclear cells (PBMC); assay: Cytokine induction in human cells (PBMC): IP-10 by multiplex bead assay; format: cell-based; details: 21-24 hrs, lowest concentration inducing cytokine at least 2× negative control, tested 0.0001-10 micromolar
Experimental: as §1, §2, §3, §4, §5

Compound: CCCCc1nc2c(N)nc3ccccc3c2n1CCCCNC(=N)NC(C)C (as salt: hydrochloride) [Example 1, 1-[4-(4-amino-2-butyl-imidazo[4,5-c]quinolin-1-yl)butyl]-3-isopropyl-guanidine dihydrochloride]
- melting point: 210 to 216 °C

Compound: CCCCc1nc2c(N)nc3ccccc3c2n1CCCCN/C(=N/C(C)C)NC(C)C (as salt: hydrochloride) [Example 2, 1-[4-(4-amino-2-butyl-imidazo[4,5-c]quinolin-1-yl)butyl]-2,3-diisopropyl-guanidine Dihydrochloride]
- melting point: 172 to 174 °C

Compound: CCCCc1nc2c(N)nc3ccccc3c2n1CCCCNC(=N)NC(C)C [Example 1, 1-[4-(4-amino-2-butyl-imidazo[4,5-c]quinolin-1-yl)butyl]-3-isopropyl-guanidine dihydrochloride]
- MEC to Induce Cytokine IFN-gamma [1]: 0.1 µM
- MEC to Induce Cytokine IFN-alpha [2]: 0.01 µM
- MEC to Induce Cytokine TNF-alpha [3]: 0.1 µM
- MEC to Induce Cytokine IP-10 [4]: 0.001 µM

Compound: CCCCc1nc2c(N)nc3ccccc3c2n1CCCCN/C(=N/C(C)C)NC(C)C [Example 2, 1-[4-(4-amino-2-butyl-imidazo[4,5-c]quinolin-1-yl)butyl]-2,3-diisopropyl-guanidine Dihydrochloride]
- MEC to Induce Cytokine IFN-gamma [1]: 1 µM
- MEC to Induce Cytokine IFN-alpha [2]: 0.1 µM
- MEC to Induce Cytokine TNF-alpha [3]: 10 µM
- MEC to Induce Cytokine IP-10 [4]: 0.1 µM

Compound: CC(C)Cn1cnc2c(N)nc3ccccc3c21 [imiquimod, reference compound]
- MEC to Induce Cytokine IFN-gamma [1]: 10 µM
- MEC to Induce Cytokine IFN-alpha [2]: 10 µM
- MEC to Induce Cytokine TNF-alpha [3]: 10 µM
- MEC to Induce Cytokine IP-10 [4]: 10 µM
